Reference: ChEMBL document CHEMBL3886653, “Cytomegalovirus inhibitor compounds” (2016)

Target: T1, DNA polymerase catalytic subunit (Human cytomegalovirus (strain AD169) (HHV-5) (Human herpesvirus 5), UniProt P08546)
T1 sequence (P08546 whole entry): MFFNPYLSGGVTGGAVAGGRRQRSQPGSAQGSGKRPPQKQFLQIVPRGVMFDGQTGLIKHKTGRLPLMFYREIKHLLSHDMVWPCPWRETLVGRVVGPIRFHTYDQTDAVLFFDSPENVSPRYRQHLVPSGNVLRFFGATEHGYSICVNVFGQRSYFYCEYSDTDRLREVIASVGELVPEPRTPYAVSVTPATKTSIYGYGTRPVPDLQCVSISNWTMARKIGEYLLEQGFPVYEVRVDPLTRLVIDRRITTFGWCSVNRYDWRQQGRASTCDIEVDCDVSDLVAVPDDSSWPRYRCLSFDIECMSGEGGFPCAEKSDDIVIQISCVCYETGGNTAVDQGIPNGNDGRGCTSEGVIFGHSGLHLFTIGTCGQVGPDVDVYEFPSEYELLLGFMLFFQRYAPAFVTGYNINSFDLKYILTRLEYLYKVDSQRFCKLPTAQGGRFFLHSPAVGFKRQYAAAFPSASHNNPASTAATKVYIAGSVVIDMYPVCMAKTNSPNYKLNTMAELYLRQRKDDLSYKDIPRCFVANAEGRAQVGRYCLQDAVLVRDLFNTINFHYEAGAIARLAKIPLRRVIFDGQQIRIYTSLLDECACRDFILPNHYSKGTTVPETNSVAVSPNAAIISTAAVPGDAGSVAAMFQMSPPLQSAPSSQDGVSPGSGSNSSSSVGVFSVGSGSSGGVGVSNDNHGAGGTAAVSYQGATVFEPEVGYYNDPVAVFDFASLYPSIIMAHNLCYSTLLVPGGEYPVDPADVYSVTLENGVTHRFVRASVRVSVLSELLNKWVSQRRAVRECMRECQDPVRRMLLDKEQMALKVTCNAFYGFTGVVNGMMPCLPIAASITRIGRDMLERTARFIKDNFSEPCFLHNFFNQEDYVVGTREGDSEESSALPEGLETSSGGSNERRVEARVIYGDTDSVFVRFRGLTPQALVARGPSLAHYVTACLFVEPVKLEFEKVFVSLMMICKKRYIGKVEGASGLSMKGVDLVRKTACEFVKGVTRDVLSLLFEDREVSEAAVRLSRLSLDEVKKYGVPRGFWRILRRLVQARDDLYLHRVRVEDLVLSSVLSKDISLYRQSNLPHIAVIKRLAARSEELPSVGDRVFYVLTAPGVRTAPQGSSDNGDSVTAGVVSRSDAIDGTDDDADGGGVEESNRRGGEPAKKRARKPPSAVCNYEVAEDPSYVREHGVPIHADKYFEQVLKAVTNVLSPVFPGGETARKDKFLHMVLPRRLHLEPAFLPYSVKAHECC
Assay: HCMV Polymerase LANCE TR-FRET Assay: The assay conditions are the following: 10 mM HEPES pH 7.5, 25 mM KCl, 7.5 mM NaCl, 5 mM MgCl2, 0.2 mg BSA/mL, 1 mM TCEP, 1.5% glycerol, 5% DMSO, 235 nM dATP, 350 nM dCTP, 350 nM dGTP, 235 nM dTTP, 12 nM biotin-16-dUTP, 23.5 nM Dig-primer/template, 2 nM GST-UL54. The assay volume is 10 μL. Each reagent is added as follow: 4 μL a+3 μL b+3 μL c; a: compound diluted in compound dilution buffer to obtain 12.5% DMSO; b: enzyme (GST-UL54) in 10 mM Hepes pH 7.5, 25 mM KCl, 5 mM MgCl2, 25 mM NaCl, 5% Glycerol, 0.67 mg BSA/mL, 1 mM TCEP w/o DMSO (2 nM GST-UL54 is present in the assay); c: substrate in 10 mM HEPES pH 7.5, 25 mM KCl, 5 mM MgCl2, 1 mM TCEP, 783 nM dATP, 1166 nM dCTP, 1166 nM dGTP, 783 nM dTTP, 40 nM biotin-16-dUTP, 78 nM Dig-primer (5'-/Dig/AGC TCG TTT AGT GAA CC-3')/template (5'-GAGGTCAAAACAGCGTGGATGGCGTCTCCAGGCGATCTGACGGTTCACTAAACGAGCT-3') w/o DMSO. The primer and template are annealed in 10 mM Tris-HCl pH 7.5, 50 mM NaCl at a respective concentration of 50 μM. They are incubated at 95 °C. for 5 min in a dry batch block. The block is removed from the dry bath and allowed to cool to RT. Aliquots are made and stored at −20 °C. To perform the assay, 3 μL of the enzyme solution is added to columns 2-12 and 14-24. The enzyme is substituted by the blank solution (b solution without enzyme) for columns 1 and 13 (blanks). The plate is centrifuged at 200×g for 30 sec. 3 μL of substrate solution is added to each well. The plate is centrifuged at 200×g for 30 sec. Plates are incubated at 37 °C. for 30 min. 5 μL of conjugate solution is added (25 mM Hepes pH 7.5, 0.1 M NaCl, 0.25% Tween-20, 1 mg/mL BSA, 12 mM EDTA, 24 nM Sreptavidin-APC, 342 ng/mL Anti-Dig-Europium). The plates are incubated at RT for at least 120 min. The signal is read on the Envision plate reader (Perkin-Elmer) or equivalent.

| SMILES | IC50 |
| --- | --- |
| CN(CC(=O)O)c1ccnc2c1cc(C(=O)NCc1ccc(Cl)cc1)c(=O)n2CC(=O)N1CC(C)(C)C1 | 50 nM |
| CC1(C)CN(C(=O)Cn2c(=O)c(C(=O)NCc3ccc(Cl)cc3)cc3cc(-c4nn[nH]n4)cnc32)C1 | 30 nM |
| COc1cc(N)nc2c1cc(C(=O)NCc1ccc(Cl)cc1)c(=O)n2CC(=O)N(C)CC1(CO)COC1 | 22 nM |
| CC1(F)CN(C(=O)Cn2c(=O)c(C(=O)NCc3ccc(C#N)cc3)cc3cc(-c4c[nH]cn4)cnc32)C1 | 320 nM |
| CN(CC(C)(C)CO)C(=O)Cn1c(=O)c(C(=O)NCc2ccc(Cl)cc2)cc2ccc(-c3cn[nH]c3)nc21 | 1000 nM |
| Cc1cc(Nc2cnc3c(c2)cc(C(=O)NCc2ccc(Cl)cc2)c(=O)n3CC(=O)N2CC(C)(C)C2)n(C)n1 | 180 nM |
| COc1cc(CNC(=O)c2cc3cc(-c4cn(C)cn4)cnc3n(CC(=O)N3CC(C)(F)C3)c2=O)ccc1Cl | 400 nM |
| CC1(C)CN(C(=O)Cn2c(=O)c(C(=O)NCc3ccc(Cl)cc3)cc3cc(CN4CCNC(C(F)(F)F)C4)cnc32)C1 (centres undefined) | 74 nM |
| CC1CN(C(=O)Cn2c(=O)c(C(=O)NCc3ccc(Cl)cc3)cc3c(-c4cnc(N)nc4)c(-c4cnn(C)c4)cnc32)C1 | 120 nM |
| CC1(C)CN(C(=O)Cn2c(=O)c(C(=O)NCc3ccc(Cl)cc3)cc3c(-c4cnc(N)nc4)ccnc32)C1 | 71 nM |
| Cc1noc(C2CCN(C(=O)Cn3c(=O)c(C(=O)NCc4ccc(Cl)cc4)cc4cccnc43)C2)n1 (centres undefined) | 10000 nM |
| CC1(C)CN(C(=O)Cn2c(=O)c(C(=O)NCc3ccc(Cl)cc3)cc3cc(C(=O)NCc4cnccn4)cnc32)C1 | 65 nM |
| COc1c(-c2sc(C)nc2C)cnc2c1cc(C(=O)NCc1ccc(Cl)cc1)c(=O)n2CC(=O)N1CC(C)(C)C1 | 1200 nM |
| CCn1cc(-c2c(O)cnc3c2cc(C(=O)NCc2ccc(Cl)cc2)c(=O)n3CC(=O)N2CC(C)(C)C2)cn1 | 160 nM |
| Cn1cc(-c2cc3cc(C(=O)NCc4ccc(Cl)cc4)c(=O)n(CC(=O)N4CC(C)(O)C4)c3nc2N)cn1 | 110 nM |
| Cn1cc(-c2cnc3c(cc(C(=O)NCc4ccc(Cl)cc4)c(=O)n3CC(=O)N3CC(C)(C)C3)c2N2CC(O)C2)cn1 | 180 nM |
| COc1c(-c2cnn(C)c2)cnc2c1cc(C(=O)NCc1ccc(Cl)cc1)c(=O)n2CC(=O)N1CCC(CO)C1 (centres undefined) | 140 nM |
| CC(=O)NC1CCN(c2cnc3c(c2)cc(C(=O)NCc2ccc(Cl)cc2)c(=O)n3CC(=O)N2CC(C)(C)C2)C1 (centres undefined) | 190 nM |

| SMILES | IC50 |
| --- | --- |
| CS(=O)(=O)C1CN(C(=O)Cn2c(=O)c(C(=O)NCc3ccc(Cl)cc3)cc3cccnc32)C1 | 17000 nM |
| Cc1nc(-c2cnc3c(c2)cc(C(=O)NCc2ccc(Cl)cc2)c(=O)n3CC(=O)N2CC(C)(C)C2)cn1C | 130 nM |
| NC(=O)[C@@H]1C[C@H](F)CN1C(=O)CCn1c(=O)c(C(=O)NCc2ccc(Cl)cc2)cc2cccnc21 | 210 nM |
| COCCNc1ccnc2c1cc(C(=O)NCc1ccc(Cl)cc1)c(=O)n2CC(=O)N1CC(C)(C)C1 | 200 nM |
| CN(C(=O)Cn1c(=O)c(C(=O)NCc2ccc(Cl)cc2)cc2cccnc21)C1CC(O)C1 (centres undefined) | 220 nM |
| NCC1CCN(C(=O)Cn2c(=O)c(C(=O)NCc3ccc(Cl)cc3)cc3cccnc32)C1 (centres undefined) | 5600 nM |
| O=C(NCc1ccc(Cl)cc1)c1cc2cccnc2n(CC(=O)N2CC3(CC3)C2)c1=O | 280 nM |
| CC1(C)CN(C(=O)Cn2c(=O)c(C(=O)NCc3ccc(Cl)cc3)cc3c(CCN4CCC4)ccnc32)C1 | 280 nM |
| CNc1ccc2cc(C(=O)NCc3ccc(Cl)cc3)c(=O)n(CC(=O)N3CC(C)(O)C3)c2n1 | 120 nM |
| Cn1nccc1Cc1cnc2c(c1)cc(C(=O)NCc1ccc(Cl)cc1)c(=O)n2CC(=O)N1CC(C)(C)C1 | 65 nM |
| Cn1cnc(-c2cnc3c(c2)cc(C(=O)NCc2ccc(Cl)cc2)c(=O)n3CC(=O)N2CC(C)(F)C2)c1 | 120 nM |
| CC1(C)CN(C(=O)Cn2c(=O)c(C(=O)NCc3ccc(Cl)cc3)cc3c(Oc4cccnc4)ccnc32)C1 | 280 nM |
| CN(CC(C)(C)CO)C(=O)Cn1c(=O)c(C(=O)NCc2ccc(Cl)cc2)cc2ccc(NC3CC3)nc21 | 970 nM |
| CC(C)c1ccnc2c1cc(C(=O)NCc1ccc(Cl)cc1)c(=O)n2CC(=O)N1CC(C)(C)C1 | 200 nM |
| Cn1cc(-c2cnc3c(c2)cc(C(=O)NCc2ccc(Cl)cc2)c(=O)n3CC(=O)N2CC(F)(CF)C2)cn1 | 59 nM |
| CC1(C)CN(C(=O)Cn2c(=O)c(C(=O)NCc3ccc(Cl)cc3)cc3c(OC[C@@H]4CCC(=O)N4)ccnc32)C1 | 62 nM |
| CC1CN(C(=O)Cn2c(=O)c(C(=O)NCc3ccc(Cl)cc3)cc3cc(OCC4(C#N)CC4)cnc32)C1 | 170 nM |
| Cn1cnc(-c2cc3cc(C(=O)NCc4ccc(Cl)cc4)c(=O)n(CC(=O)N4CC(C)(F)C4)c3nc2N)c1 | 77 nM |

Target: T1, DNA polymerase catalytic subunit
Assay: HCMV Polymerase Scintillation Proximity Assay: The assay conditions are the following: 10 mM HEPES pH 7.5, 25 mM KCl, 7.5 mM NaCl, 5 mM MgCl2, 0.2 mg BSA/mL, 1 mM TCEP, 1.5% glycerol, 2 μM dTTP, 90 nM 3H-dTTP (minor variations in concentration are possible due to specific activity of stock), 26 nM Poly(dA)/190 nM BioTEG-dT19; 5% DMSO. The assay volume is 30 μL. Each reagent is added at a 3× conc.: 10 μL a+10 μL b+10 μL c; a: compound diluted in 10 mM Hepes pH 7.5, 25 mM KCl, 5 mM MgCl2, 1 mM TCEP with 15% DMSO; b: enzyme (GST-UL54) in 10 mM Hepes pH 7.5, 25 mM KCl, 5 mM MgCl2, 22.5 mM NaCl, 4.5% Glycerol, 0.6 mg BSA/mL, 1 mM TCEP w/o DMSO (1 nM GST-UL54 is present in the assay); c: substrate in 10 mM Hepes pH 7.5, 25 mM KCl, 5 mM MgCl2, 1 mM TCEP, 6 μM dTTP, 270 nM 3H-dTTP, 78 nM Poly(dA)/570 nM BioTEG-dT19 w/o DMSO. To perform the assay, 10 μL enzyme solution is added to columns 2-12 and 14-24. The enzyme is substituted by the blank solution (b solution without enzyme) for columns 1 and 13 (blanks). The plate is centrifuged at 200×g for 30 sec. 10 μL of substrate solution is added to each well. The plate is centrifuged at 200×g for 30 sec. The plates are incubated at 37 °C. for 40 min. To stop the reaction, 25 μL of SPA beads (5 mg/mL in 0.5 M EDTA) are added and mixed by pipetting up and down. The plates are incubated at RT for at least 15 min. 35 μL of 5 M CsCl is added to the bottom of each well. TopSeal is applied to the plate and the plate is incubated at RT for at least 90 min prior to reading. The signal is read on TopCount plate reader (Perkin-Elmer) or equivalent.

| SMILES | IC50 |
| --- | --- |
| CC1(C)CN(C(=O)Cn2c(=O)c(C(=O)NCc3ccc(Cl)c(Cl)c3)cc3cccnc32)C1 | 14000 nM |
| CC1(C)CN(C(=O)Cn2c(=O)c(C(=O)NCc3ccc(Cl)c(C(F)(F)F)c3)cc3cccnc32)C1 | 38000 nM |
| O=C(NCc1ccc(Cl)cc1)c1cc2cccnc2n(CC(=O)N2CCCOCC2)c1=O | 16000 nM |
